In patent US20260217711A1, “TRIAZOLOPYRIDINYL ETHER LINKED COMPOUNDS AS KINASE INHIBITORS” (Bristol-Myers Squibb Company, priority 2023, published 2026):

test system: MLKL phosphorylation (pMLKL) in HT29-L23 cells; assay: MLKL Phosphorylation High-Content Assay; assay type: cell-based; settings: Homo sapiens, 6 h, necroptosis induced with human TNFα, SMAC mimetic and Z-VAD, read-out: LE pMLKL HC IC50
Procedure: Following 6 h incubation at 37° C. […] MLKL phosphorylation was detected using anti-MLKL (phospho […]) antibody (Abcam #ab187091) (1:1000 dilution in Blocking Buffer [PBS supplemented with 0.1% BSA]) with ON incubation at 4° C. […] Following another three cycles of washes in PBS, the microplates were sealed, and cellular images were acquired in the Cellomics ArrayScan VTI high-content imager equipped with an X1 camera. […] The image sets were analyzed using the Compartmental Analysis Bioapplication software (Cellomics). The level of MLKL phosphorylation was quantified as […].

| Structure (SMILES) | IC50 |
| --- | --- |
| Nc1nc2cc(-c3cccc(OCCC(F)(F)C(O)c4ccccc4)c3F)ccn2n1 (racemic) [Example 69, 4-(3-(2-amino-[1,2,4]triazolo[1,5-a]pyridin-7-yl)-2-fluorophenoxy)-2,2-difluoro-1-phenylbutan-1-ol] | 3 nM |
| CC(O)(c1ccc(F)cc1)C(F)(F)CCOc1cccc(-c2ccn3nc(N)nc3c2)c1C(F)F (single isomer, unassigned) [Example 23, 5-(3-(2-amino-[1,2,4]triazolo[1,5-a]pyridin-7-yl)-2-(difluoromethyl)phenoxy)-3,3-difluoro-2-(4-fluorophenyl)pentan-2-ol] | 6000 nM |
| Cc1ccc(-c2ccn3nc(N)nc3c2)c(F)c1OCCC(F)(F)C(O)c1ccc(F)cc1 (racemic) [Example 66, 4-(3-(2-amino-[1,2,4]triazolo[1,5-a]pyridin-7-yl)-2-fluoro-6-methylphenoxy)-2,2-difluoro-1-(4-fluorophenyl)butan-1-ol] | 0.3 nM |
| Nc1nc2cc(-c3cccc(OCCC(F)(F)C(O)c4ccc(Cl)cc4)c3F)ccn2n1 (racemic) [Example 70, 4-(3-(2-amino-[1,2,4]triazolo[1,5-a]pyridin-7-yl)-2-fluorophenoxy)-1-(4-chlorophenyl)-2,2-difluorobutan-1-ol] | 1 nM |
| Nc1nc2cc(-c3cccc(OCCC(F)(F)COc4cc(Cl)ccn4)c3F)ccn2n1 [Example 1, 7-(3-(4-((4-chloropyridin-2-yl)oxy)-3,3-difluorobutoxy)-2-fluorophenyl)-[1,2,4]triazolo[1,5-a]pyridin-2-amine] | 140 nM |
| CC(O)(c1ccc(F)cc1)C(F)(F)CCOc1cnc(Cl)c(-c2ccn3nc(N)nc3c2)n1 (racemic) [Example 81, 5-((6-(2-amino-[1,2,4]triazolo[1,5-a]pyridin-7-yl)-5-chloropyrazin-2-yl)oxy)-3,3-difluoro-2-(4-fluorophenyl)pentan-2-ol] | 0.2 nM |
| Nc1nc2cc(-c3cccc(OCCC(F)(F)C(O)c4ccc(F)cc4)c3F)ccn2n1 (single isomer, unassigned) [Example 71, 4-(3-(2-amino-[1,2,4]triazolo[1,5-a]pyridin-7-yl)-2-fluorophenoxy)-2,2-difluoro-1-(4-fluorophenyl)butan-1-ol] | 0.6 nM |
| Nc1nc2cc(-c3ccc(Cl)c(OCCC(F)C(O)c4ccc(F)cc4)c3F)ccn2n1 (single isomer, unassigned) [Example 82, 4-(3-(2-amino-[1,2,4]triazolo[1,5-a]pyridin-7-yl)-6-chloro-2-fluorophenoxy)-2-fluoro-1-(4-fluorophenyl)butan-1-ol] | 26 nM |

same assay, conditions: necroptosis induced with human TNFα, SMAC mimetic and Z-VAD, 6 h, read-out: LE pMLKL HC IC50

| Structure (SMILES) | IC50 |
| --- | --- |
| Nc1nc2cc(-c3cccc(OCCC(F)(F)C(N)c4ccc(F)cc4)c3F)ccn2n1 (single isomer, unassigned) [Example 62, 7-(3-(4-amino-3,3-difluoro-4-(4-fluorophenyl)butoxy)-2-fluorophenyl)-[1,2,4]triazolo[1,5-a]pyridin-2-amine] | 6 nM |
| Nc1nc2cc(-c3ccc(Cl)c(OCCC(F)C(O)c4ccc(F)cc4)c3F)ccn2n1 (single isomer, unassigned) [Example 98, 4-(3-(2-amino-[1,2,4]triazolo[1,5-a]pyridin-7-yl)-6-chloro-2-fluorophenoxy)-2-fluoro-1-(4-fluorophenyl)butan-1-ol] | 2 nM |
| [2H]C([2H])(CC(F)(F)C(C)(O)c1ccc(F)cc1)Oc1cccc(-c2ccn3nc(N)nc3c2)c1F (single isomer, unassigned) [Example 12, 5-(3-(2-amino-[1,2,4]triazolo[1,5-a]pyridin-7-yl)-2-fluorophenoxy)-3,3-difluoro-2-(4-fluorophenyl)pentan-5,5-d2-2-ol] | 1 nM |
| CC(C)(CC(F)(F)C(C)(O)c1ccc(F)cc1)Oc1c(F)ccc(-c2ccn3nc(N)nc3c2)c1F (single isomer, unassigned) [Example 130, 5-(3-(2-amino-[1,2,4]triazolo[1,5-a]pyridin-7-yl)-2,6-difluorophenoxy)-3,3-difluoro-2-(4-fluorophenyl)-5-methylhexan-2-ol] | 4200 nM |
| CC(O)(c1ccccc1F)C(F)(F)CCOc1c(F)ccc(-c2ccn3nc(N)nc3c2)c1F (single isomer, unassigned) [Example 124, 5-(3-(2-amino-[1,2,4]triazolo[1,5-a]pyridin-7-yl)-2,6-difluorophenoxy)-3,3-difluoro-2-(2-fluorophenyl)pentan-2-ol] | 160 nM |
| CC(O)(c1cccc(F)c1)C(F)(F)CCOc1c(F)ccc(-c2ccn3nc(N)nc3c2)c1F (single isomer, unassigned) [Example 122, 5-(3-(2-amino-[1,2,4]triazolo[1,5-a]pyridin-7-yl)-2,6-difluorophenoxy)-3,3-difluoro-2-(3-fluorophenyl)pentan-2-ol] | 130 nM |
| CC(CC(F)(F)C(C)(O)c1ccc(F)cc1)Oc1c(F)ccc(-c2ccn3nc(N)nc3c2)c1F (single isomer, unassigned) [Example 127, 5-(3-(2-amino-[1,2,4]triazolo[1,5-a]pyridin-7-yl)-2,6-difluorophenoxy)-3,3-difluoro-2-(4-fluorophenyl)hexan-2-ol] | 1.1 nM |
| Cc1ccc(-c2ccn3nc(N)nc3c2)c(F)c1OCCC(F)C(C)(O)c1ccc(F)cc1 (single isomer, unassigned) [Example 115, 5-(3-(2-amino-[1,2,4]triazolo[1,5-a]pyridin-7-yl)-2-fluoro-6-methylphenoxy)-3-fluoro-2-(4-fluorophenyl)pentan-2-ol] | 2.6 nM |
| Nc1nc2cc(-c3ccc(Cl)c(OCCC(F)C(O)c4ccc(F)cc4)c3F)ccn2n1 (single isomer, unassigned) [Example 101, 4-(3-(2-amino-[1,2,4]triazolo[1,5-a]pyridin-7-yl)-6-chloro-2-fluorophenoxy)-2-fluoro-1-(4-fluorophenyl)butan-1-ol] | 30 nM |
| Cc1ccc(-c2ccn3nc(N)nc3c2)c(F)c1OCCC(F)C(O)c1ccc(F)cc1 (single isomer, unassigned) [Example 106, 4-(3-(2-amino-[1,2,4]triazolo[1,5-a]pyridin-7-yl)-2-fluoro-6-methylphenoxy)-2-fluoro-1-(4-fluorophenyl)butan-1-ol] | 3 nM |
| Cc1ccc(-c2ccn3nc(N)nc3c2)c(F)c1OCCC(F)(F)C(C)(O)c1ccc(F)cc1 (single isomer, unassigned) [Example 64, 5-(3-(2-amino-[1,2,4]triazolo[1,5-a]pyridin-7-yl)-2-fluoro-6-methylphenoxy)-3,3-difluoro-2-(4-fluorophenyl)pentan-2-ol] | 0.1 nM |
| CC(O)(c1ccc(Cl)cc1)C(F)(F)CCOc1c(Cl)ccc(-c2ccn3nc(N)nc3c2)c1F (single isomer, unassigned) [Example 44, 5-(3-(2-amino-[1,2,4]triazolo[1,5-a]pyridin-7-yl)-6-chloro-2-fluorophenoxy)-2-(4-chlorophenyl)-3,3-difluoropentan-2-ol] | 0.6 nM |
| CC(O)(c1ccc(F)cc1)C(F)CCOc1cc(-c2ccn3nc(N)nc3c2)cc(F)c1F (single isomer, unassigned) [Example 93, 5-(5-(2-amino-[1,2,4]triazolo[1,5-a]pyridin-7-yl)-2,3-difluorophenoxy)-3-fluoro-2-(4-fluorophenyl)pentan-2-ol] | 140 nM |
| Nc1nc2cc(-c3ccc(F)c(OCCC(F)(F)C(O)c4ccc(F)cc4)c3F)ccn2n1 (single isomer, unassigned) [Example 55, 4-(3-(2-amino-[1,2,4]triazolo[1,5-a]pyridin-7-yl)-2,6-difluorophenoxy)-2,2-difluoro-1-(4-fluorophenyl)butan-1-ol] | 0.3 nM |
| Nc1nc2cc(-c3cccc(OCCC(F)C(O)c4ccc(F)cc4)c3F)ccn2n1 (single isomer, unassigned) [Example 85, 4-(3-(2-amino-[1,2,4]triazolo[1,5-a]pyridin-7-yl)-2-fluorophenoxy)-2-fluoro-1-(4-fluorophenyl)butan-1-ol] | 0.9 nM |
| Nc1nc2cc(-c3ccc(F)c(OCCC(F)(F)C(O)c4ccc(F)cc4)c3)ccn2n1 (single isomer, unassigned) [Example 54, 4-(5-(2-amino-[1,2,4]triazolo[1,5-a]pyridin-7-yl)-2-fluorophenoxy)-2,2-difluoro-1-(4-fluorophenyl)butan-1-ol] | 32 nM |
| COc1ccc(-c2ccn3nc(N)nc3c2)c(F)c1OCCC(F)(F)C(C)(O)c1ccc(F)cc1 (single isomer, unassigned) [Example 18, 5-(3-(2-amino-[1,2,4]triazolo[1,5-a]pyridin-7-yl)-2-fluoro-6-methoxyphenoxy)-3,3-difluoro-2-(4-fluorophenyl)pentan-2-ol] | 80 nM |
| Nc1nc2cc(-c3cc(F)c(F)c(OCCC(F)C(O)c4ccc(F)cc4)c3)ccn2n1 (single isomer, unassigned) [Example 116, 4-(5-(2-amino-[1,2,4]triazolo[1,5-a]pyridin-7-yl)-2,3-difluorophenoxy)-2-fluoro-1-(4-fluorophenyl)butan-1-ol] | 55 nM |
| CC(O)(c1ccc(F)cc1)C(F)CCOc1c(F)ccc(-c2ccn3nc(N)nc3c2)c1F (single isomer, unassigned) [Example 95, 5-(3-(2-amino-[1,2,4]triazolo[1,5-a]pyridin-7-yl)-2,6-difluorophenoxy)-3-fluoro-2-(4-fluorophenyl)pentan-2-ol] | 4 nM |
| Cc1ccc(-c2ccn3nc(N)nc3c2)c(F)c1OCCC(F)(F)C(C)(O)c1ccc(F)cc1 (single isomer, unassigned) [Example 63, 5-(3-(2-amino-[1,2,4]triazolo[1,5-a]pyridin-7-yl)-2-fluoro-6-methylphenoxy)-3,3-difluoro-2-(4-fluorophenyl)pentan-2-ol] | 8 nM |
